The source of these data is ChEMBL document CHEMBL5550129, “Optimization of benzenesulfonyl derivatives as anti-Trypanosomatidae agents: Structural design, synthesis, and pharmacological assessment against Trypanosoma cruzi and Leishmania infantum” (Bioorg Med Chem, 2024).

Usually IC50 stands for the concentration that inhibits the measured activity by half. Usually CC50 stands for the concentration giving 50% cytotoxicity.

The first data set concerns Trypanosoma cruzi. The experiment in a line: Antitrypanosomal activity against Trypanosoma cruzi Tulahuen expressing Escherichia coli beta-galactosidase infected in L929 cells pretreated with parasite for 50 hrs followed by compound addition and measured after 96 hrs. The format is functional, organism-based.
Settings: not given
Take `CN(C)CCOc1cccc(N2CCN(S(=O)(=O)c3ccc(Cl)cc3)CC2)c1`: the IC50 came out at 137 µM.

Consider `CN(C)CCOc1ccccc1C(=O)N1CCN(S(=O)(=O)c2ccc(Cl)cc2)CC1`, for which the 50% inhibitory concentration (IC50) is > 200 µM.

For the molecule `O=C(c1ccc(-n2cnnn2)cc1)N1CCN(S(=O)(=O)c2ccc(Cl)cc2)CC1`, the half-maximal inhibitory concentration (IC50) stood at 145 µM.

With `COc1ccc(OC)c(S(=O)(=O)N2CCN(c3ccc(OCCN(C)C)cc3)CC2)c1`, the 50% inhibitory concentration (IC50) was determined as 13.4 µM.

For the molecule `CN(C)CCOc1cccc(C(=O)N2CCN(S(=O)(=O)c3ccc(Cl)cc3)CC2)c1`, the IC50 is 137 µM.

Turning to `CN(C)CCOc1ccc(N2CCN(S(=O)(=O)c3ccccc3Br)CC2)cc1`, the IC50 was 3.7 µM.

For the molecule `CN(C)CCOc1ccc(C(=O)N2CCN(S(=O)(=O)c3ccc(Cl)cc3)CC2)cc1`, the IC50 was found to be 13.8 µM.

`NCCOc1ccc(C(=O)N2CCN(S(=O)(=O)c3ccc(Cl)cc3)CC2)cc1`: the half-maximal inhibitory concentration (IC50) was > 200 µM.

Turning to `CN(C)CCOc1ccc(N2CCN(S(=O)(=O)c3ccc(N)cc3)CC2)cc1`, the IC50 turned out to be 168 µM.

As for `COc1ccc(Cl)cc1S(=O)(=O)N1CCN(c2ccc(OCCN(C)C)cc2)CC1`, the IC50 stood at 12.6 µM.

Regarding `Cc1ccc(S(=O)(=O)N2CCN(c3ccc(OCCN(C)C)cc3)CC2)cc1`, the IC50 came to 2.2 µM.

With `O=C(c1ccc(N2CCNCC2)nc1)N1CCN(S(=O)(=O)c2ccc(Cl)cc2)CC1`, the IC50 was 9.8 µM.

Consider `CN(C)CCOc1ccc(N2CCN(S(=O)(=O)c3ccc(Br)cc3)CC2)cc1`, for which the half-maximal inhibitory concentration (IC50) turned out to be 8.3 µM.

Test system in another data set: not listed separately
The experiment in a line: Cytotoxicity against mouse L929 cells incubated for 96 hrs by Alamar blue assay.
Settings: not given
Type of data set: toxicity, cell-based.
In the case of `COc1ccc(OC)c(S(=O)(=O)N2CCN(c3ccc(OCCN(C)C)cc3)CC2)c1`, the 50% cytotoxic concentration (CC50) at 96 h is 274 µM.

`CN(C)CCOc1ccc(N2CCN(S(=O)(=O)c3ccccc3Br)CC2)cc1` returned a CC50 at 96 h of 10 µM.

As for `CN(C)CCOc1ccc(C(=O)N2CCN(S(=O)(=O)c3ccc(Cl)cc3)CC2)cc1`, the CC50 at 96 h came to 345 µM.

For `COc1ccc(Cl)cc1S(=O)(=O)N1CCN(c2ccc(OCCN(C)C)cc2)CC1`, the CC50 at 96 h was 148 µM.

`Cc1ccc(S(=O)(=O)N2CCN(c3ccc(OCCN(C)C)cc3)CC2)cc1` had a CC50 at 96 h of 289 µM.

For the molecule `O=C(c1ccc(N2CCNCC2)nc1)N1CCN(S(=O)(=O)c2ccc(Cl)cc2)CC1`, the CC50 at 96 h was 18 µM.

For `CN(C)CCOc1ccc(N2CCN(S(=O)(=O)c3ccc(Br)cc3)CC2)cc1`, the CC50 at 96 h is > 427 µM.

Test system in another data set: not listed separately
Put plainly: Selectivity index, ratio of CC50 for mouse L929 cells to IC50 for Trypanosoma cruzi Tulahuen expressing Escherichia coli beta-galactosidase infected in L929 cells. The format is toxicity. The conditions noted are these: read-out: Ratio CC50/IC50.
For `COc1ccc(OC)c(S(=O)(=O)N2CCN(c3ccc(OCCN(C)C)cc3)CC2)c1`, the selectivity ratio was 20.

Regarding `CN(C)CCOc1ccc(N2CCN(S(=O)(=O)c3ccccc3Br)CC2)cc1`, the selectivity ratio was 3.

For the molecule `CN(C)CCOc1ccc(C(=O)N2CCN(S(=O)(=O)c3ccc(Cl)cc3)CC2)cc1`, the selectivity ratio was determined as 25.

On to `COc1ccc(Cl)cc1S(=O)(=O)N1CCN(c2ccc(OCCN(C)C)cc2)CC1`, for which the selectivity ratio was determined as 12.

Consider `Cc1ccc(S(=O)(=O)N2CCN(c3ccc(OCCN(C)C)cc3)CC2)cc1`, for which the selectivity ratio stood at 136.

As for `O=C(c1ccc(N2CCNCC2)nc1)N1CCN(S(=O)(=O)c2ccc(Cl)cc2)CC1`, the selectivity ratio came out at 2.

Take `CN(C)CCOc1ccc(N2CCN(S(=O)(=O)c3ccc(Br)cc3)CC2)cc1`: the selectivity ratio is > 57.

In a further data set the test system is Leishmania infantum. The experiment in a line: Antileishmanial activity against Leishmania infantum MHOM/BR/1974/PP75 expressing red fluorescence protein infected in THP-1 cells pre-infected for 4 hrs followed by compound addition and measured after 72 hrs by microplate reader assay. Particulars: MHOM/BR/1974/PP75, THP-1. Type of data set: functional, organism-based.
Molecule `CN(C)CCOc1cccc(N2CCN(S(=O)(=O)c3ccc(Cl)cc3)CC2)c1` came in with an IC50 of 4.6 µM.

Turning to `CN(C)CCOc1ccccc1C(=O)N1CCN(S(=O)(=O)c2ccc(Cl)cc2)CC1`, the IC50 stood at 10.3 µM.

As for `O=C(c1ccc(-n2cnnn2)cc1)N1CCN(S(=O)(=O)c2ccc(Cl)cc2)CC1`, the concentration for half-maximal inhibition (IC50) is 35.9 µM.

`COc1ccc(OC)c(S(=O)(=O)N2CCN(c3ccc(OCCN(C)C)cc3)CC2)c1` came in with an IC50 of 29.6 µM.

In turn, `CN(C)CCOc1cccc(C(=O)N2CCN(S(=O)(=O)c3ccc(Cl)cc3)CC2)c1` displayed an IC50 of 0.6 µM.

Molecule `CN(C)CCOc1ccc(N2CCN(S(=O)(=O)c3ccccc3Br)CC2)cc1` showed an IC50 of 43.3 µM.

For `CN(C)CCOc1ccc(C(=O)N2CCN(S(=O)(=O)c3ccc(Cl)cc3)CC2)cc1`, it took 0.9 µM to reach half-maximal inhibition (IC50).

For the molecule `NCCOc1ccc(C(=O)N2CCN(S(=O)(=O)c3ccc(Cl)cc3)CC2)cc1`, the half-inhibitory concentration (IC50) is > 100 µM.

In turn, `CN(C)CCOc1ccc(N2CCN(S(=O)(=O)c3ccc(N)cc3)CC2)cc1` gave a half-inhibitory concentration (IC50) of 55.2 µM.

Take `COc1ccc(Cl)cc1S(=O)(=O)N1CCN(c2ccc(OCCN(C)C)cc2)CC1`: the half-maximal inhibitory concentration (IC50) was > 100 µM.

With `Cc1ccc(S(=O)(=O)N2CCN(c3ccc(OCCN(C)C)cc3)CC2)cc1`, the IC50 is > 100 µM.

Take `O=C(c1ccc(N2CCNCC2)nc1)N1CCN(S(=O)(=O)c2ccc(Cl)cc2)CC1`: the half-inhibitory concentration (IC50) is > 100 µM.

Turning to `CN(C)CCOc1ccc(N2CCN(S(=O)(=O)c3ccc(Br)cc3)CC2)cc1`, the IC50 is > 100 µM.

Test system in a further data set: not listed separately
Put plainly: Cytotoxicity against human THP-1 cells incubated for 72 hrs by Alamar blue assay. The format is toxicity, cell-based.
Settings: not given
For orientation: Resazurin is reduced to fluorescent resorufin, in cell work by metabolically active cells.
In turn, `CN(C)CCOc1cccc(N2CCN(S(=O)(=O)c3ccc(Cl)cc3)CC2)c1` yielded a half-maximal cytotoxic concentration (CC50) at 72 h of 170 µM.

`CN(C)CCOc1ccccc1C(=O)N1CCN(S(=O)(=O)c2ccc(Cl)cc2)CC1`: the 50% cytotoxic concentration (CC50) at 72 h was > 500 µM.

Consider `O=C(c1ccc(-n2cnnn2)cc1)N1CCN(S(=O)(=O)c2ccc(Cl)cc2)CC1`, for which the 50% cytotoxic concentration (CC50) at 72 h is > 1000 µM.

`COc1ccc(OC)c(S(=O)(=O)N2CCN(c3ccc(OCCN(C)C)cc3)CC2)c1` returned a CC50 at 72 h of 141 µM.

For `CN(C)CCOc1ccc(N2CCN(S(=O)(=O)c3ccccc3Br)CC2)cc1`, the 50% cytotoxic concentration (CC50) at 72 h is 161 µM.

As for `CN(C)CCOc1ccc(C(=O)N2CCN(S(=O)(=O)c3ccc(Cl)cc3)CC2)cc1`, the 50% cytotoxic concentration (CC50) at 72 h is > 1000 µM.

Turning to `NCCOc1ccc(C(=O)N2CCN(S(=O)(=O)c3ccc(Cl)cc3)CC2)cc1`, the CC50 at 72 h came to 911 µM.

`CN(C)CCOc1ccc(N2CCN(S(=O)(=O)c3ccc(N)cc3)CC2)cc1`: the half-maximal cytotoxic concentration (CC50) at 72 h was > 1000 µM.

With `COc1ccc(Cl)cc1S(=O)(=O)N1CCN(c2ccc(OCCN(C)C)cc2)CC1`, the CC50 at 72 h stood at 73.9 µM.

On to `Cc1ccc(S(=O)(=O)N2CCN(c3ccc(OCCN(C)C)cc3)CC2)cc1`, for which the CC50 at 72 h amounted to 298 µM.

The molecule `O=C(c1ccc(N2CCNCC2)nc1)N1CCN(S(=O)(=O)c2ccc(Cl)cc2)CC1` returned a cytotoxic concentration (CC50) at 72 h of 253 µM.

In turn, `CN(C)CCOc1ccc(N2CCN(S(=O)(=O)c3ccc(Br)cc3)CC2)cc1` registered a half-maximal cytotoxic concentration (CC50) at 72 h of 283 µM.

Test system in the next data set: not listed separately
The experiment in a line: Selectivity index, ratio of CC50 for human THP-1 cells to IC50 for Leishmania infantum MHOM/BR/1974/PP75 expressing red fluorescence protein infected in THP-1 cells. Particulars: read-out: Ratio CC50/IC50. The format is toxicity, cell-based.
As to `CN(C)CCOc1cccc(N2CCN(S(=O)(=O)c3ccc(Cl)cc3)CC2)c1`, the selectivity ratio is 37.

For the molecule `CN(C)CCOc1ccccc1C(=O)N1CCN(S(=O)(=O)c2ccc(Cl)cc2)CC1`, the selectivity ratio is > 49.

Take `COc1ccc(OC)c(S(=O)(=O)N2CCN(c3ccc(OCCN(C)C)cc3)CC2)c1`: the selectivity ratio worked out at 5.

Regarding `CN(C)CCOc1ccc(N2CCN(S(=O)(=O)c3ccccc3Br)CC2)cc1`, the selectivity ratio came to 4.

For `CN(C)CCOc1ccc(C(=O)N2CCN(S(=O)(=O)c3ccc(Cl)cc3)CC2)cc1`, the selectivity ratio is > 2460.

Take `CN(C)CCOc1ccc(N2CCN(S(=O)(=O)c3ccc(N)cc3)CC2)cc1`: the selectivity ratio is > 11.

Regarding `COc1ccc(Cl)cc1S(=O)(=O)N1CCN(c2ccc(OCCN(C)C)cc2)CC1`, the selectivity ratio was < 1.

For the molecule `Cc1ccc(S(=O)(=O)N2CCN(c3ccc(OCCN(C)C)cc3)CC2)cc1`, the selectivity ratio was < 3.

On to `O=C(c1ccc(N2CCNCC2)nc1)N1CCN(S(=O)(=O)c2ccc(Cl)cc2)CC1`, for which the selectivity ratio was < 3.

For the molecule `CN(C)CCOc1ccc(N2CCN(S(=O)(=O)c3ccc(Br)cc3)CC2)cc1`, the selectivity ratio is < 3.

For another data set, the system named is Leishmania braziliensis. The experiment in a line: Antileishmanial activity against Leishmania braziliensis MHOM/BR/75/M2904 expressing red fluorescence protein infected in THP-1 cells pre-infected for 4 hrs followed by compound addition and measured after 72 hrs by microplate reader assay. The conditions noted are these: MHOM/BR/75/M2904, THP-1. The format is functional, organism-based.
Molecule `CN(C)CCOc1cccc(N2CCN(S(=O)(=O)c3ccc(Cl)cc3)CC2)c1` came in with a 50% inhibitory concentration (IC50) of 41.7 µM.

`CN(C)CCOc1ccccc1C(=O)N1CCN(S(=O)(=O)c2ccc(Cl)cc2)CC1` yielded a concentration for half-maximal inhibition (IC50) of 7.2 µM.

Regarding `COc1ccc(OC)c(S(=O)(=O)N2CCN(c3ccc(OCCN(C)C)cc3)CC2)c1`, the concentration for half-maximal inhibition (IC50) stood at 29.6 µM.

For the molecule `CN(C)CCOc1cccc(C(=O)N2CCN(S(=O)(=O)c3ccc(Cl)cc3)CC2)c1`, the half-inhibitory concentration (IC50) was found to be 4.4 µM.

In the case of `CN(C)CCOc1ccc(C(=O)N2CCN(S(=O)(=O)c3ccc(Cl)cc3)CC2)cc1`, the half-maximal inhibitory concentration (IC50) was 1.4 µM.

Test system in the next data set: not listed separately
The experiment in a line: Selectivity index, ratio of CC50 for human THP-1 cells to IC50 for Leishmania braziliensis MHOM/BR/75/M2904 expressing red fluorescence protein infected in THP-1 cells. Type of data set: toxicity, cell-based. Particulars: read-out: Ratio CC50/IC50.
As to `CN(C)CCOc1cccc(N2CCN(S(=O)(=O)c3ccc(Cl)cc3)CC2)c1`, the selectivity ratio was found to be 4.

For the molecule `CN(C)CCOc1ccccc1C(=O)N1CCN(S(=O)(=O)c2ccc(Cl)cc2)CC1`, the selectivity ratio was > 69.5.

On to `COc1ccc(OC)c(S(=O)(=O)N2CCN(c3ccc(OCCN(C)C)cc3)CC2)c1`, for which the selectivity ratio was 5.

In the case of `CN(C)CCOc1ccc(C(=O)N2CCN(S(=O)(=O)c3ccc(Cl)cc3)CC2)cc1`, the selectivity ratio is > 714.
